In US20150250902A1, “pH-RESPONSIVE GADOLINIUM NANOPARTICLE CONJUGATES AND USES THEREOF” (Colorado School of Mines, priority 2014, published 2015):

Test: In vitro MRI relaxivity of gold/Gd nanoparticles and clinical contrast agents
Excerpt: In vitro MRI of Gadolinium Nanoparticles and Polymer Modified Gadolinium Nanoparticles. In order to provide information about the clinical imaging viability of the polymer modified gold/Gd nanoparticles as a positive contrast agent, in vitro MRI was employed to determine relaxation properties of the unmodified and polymer modified gold/Gd nanoparticles. Table 1 compares the MRI longitudinal and transverse relaxivities, r1 and r2, respectively, of PNIPAM-modified gold/Gd nanoparticles and gold/Gd unmodified nanoparticles to the clinically employed contrasts agents, gadopentetate dimeglumine (Magnevist®) and gadobenate dimeglumine (Multihance®). […] By taking advantage of these properties, novel theragnostic polymer-modified gold/Gd nanoparticles could be produced and exploited as contrast agents for conventional T1 MR imaging.

SMILES: CNC[C@H](O)[C@@H](O)[C@H](O)[C@H](O)CO.CNC[C@H](O)[C@@H](O)[C@H](O)[C@H](O)CO.O=C([O-])CN(CCN(CC(=O)[O-])CC(=O)O)CCN(CC(=O)[O-])CC(=O)O.[Gd+3] [Magnevist ®, gadopentetate dimeglumine]
- r1 (MRI longitudinal relaxivity): 6.95 mM⁻¹ s⁻¹

SMILES: CNC[C@H](O)[C@@H](O)[C@H](O)[C@H](O)CO.CNC[C@H](O)[C@@H](O)[C@H](O)[C@H](O)CO.O=C([O-])CN(CCN(CC(=O)[O-])CC(=O)O)CCN(CC(=O)O)C(COCc1ccccc1)C(=O)[O-].[Gd+3] (centres unmarked) [Multihance ®, gadobenate dimeglumine]
- r1 (MRI longitudinal relaxivity): 17.7 mM⁻¹ s⁻¹
